Results on 1 compound are retold here after patent publication US11958812B2, “3, 5-disubstituted pyridine and 3, 5-disubstituted pyridazine derivatives and pharmaceutical use of same” (MITSUBISHI TANABE PHARMA CORPORATION, priority 2018, dated 2024).

The target in assay [1] is T1, ATX activity in plasma (Rattus norvegicus, UniProt Q64610).
T1 construct: from tissue; host or cells: plasma of male Wistar rats after oral dosing
As to the kind of experiment: Measurement of ATX activity in plasma (ex vivo), rat single administration test. Details: species or system male Wistar rat. As to the method:
[Measurement of ATX Activity in Plasma (Ex Vivo)]
A compound administration solution prepared by wet pulverization in a mixer mill (type: MM400) for 10 min and adjusting to a given concentration with 0.5% aqueous carboxymethylcellulose solution was orally administered to male Wistar rat (5-week-old when used) at 5 mL/kg. Blood samples were collected from the cervical vein over time at 8 to 24 hr after administration. The blood was heparin-treated using a micro blood collection tube Capiject (CJ-AL, TERUMO CORPORATION), and the plasma was separated by centrifugation (4° C., 12,000 rpm, for 2 min), and preserved at −80° C. The rats after blood sampling were euthanized by exsanguination from the caudal vena cava under isoflurane inhalation anesthesia. The measurement of ATX activity in plasma was evaluated using the concentration of choline in the plasma, which was liberated from lysophosphatidylcholine (substrate of ATX) by the lysophospholipase D activity of ATX, as an index. An equal amount of 2× assay buffer (200 mM Tris-HCl pH9.0, 10 mM MgCl2, 1 M NaCl, 0.1% Triton X-100) is added to plasma (12 μL) and reacted at 37° C. for 6 hr. The reaction mixture (10 μL) after reaction for 6 hr and 45 μL of reagent R^1 solution (100 mM Tris-HCl pH 8.0, 0.5 mM TOOS, 10 U/mL peroxidase, 0.01% Triton X-100) were added and blended and absorbance at 550-700 nm was measured and used as a prevalue. As the standard, choline chloride was used. 1 mM choline chloride was diluted with 2× assay buffer up to 7 steps in 2-fold serial dilution, R^1 solution was treated similarly and the absorbance was measured. Furthermore, 15 μL of reagent R^2 solution (100 mM Tris-HCl pH 8.0, 1 mM 4-aminoantipyrine, 10 U/mL choline oxidase, 0.01% Triton X-100) was added, and the mixture was reacted at room temperature for 10 min, and absorbance at 550-700 nm was measured. The choline concentration per reaction time was calculated from the difference between the absorbance after R^2 solution addition and prevalue measured before R^2 addition and used as ATX activity value. inhibitory activity (%)=100×{1−[choline concentration (μM) of test substance administration group/choline concentration (μM) of solvent control group]} <calculating formula>

Assay [2] relates to Macaca fascicularis laser-induced high intraocular pressure model. As to the kind of experiment: Macaca fascicularis laser-induced high intraocular pressure model. In kind it is in vivo. To be noted: left eye with high intraocular pressure. The procedure:
[Study of Action of ATX Inhibitor on Macaca fascicularis Intraocular Pressure]
The efficacy of ATX inhibitor (Example 5, hereinafter indicated as in example 5 in the Figures) for Macaca fascicularis laser-induced high intraocular pressure model was evaluated using the intraocular pressure lowering action as an index.
A green laser beam at wavelength 532 nm was uniformly irradiated to 360° around of the trabecular meshwork, which is the excretory passage of the aqueous humor, of the left eye alone, whereby high intraocular pressure was induced. The right eye was maintained normal. […]
The required amount of ATX inhibitor (Example 5) was weighed, transferred to an agate mortar and lightly ground. […] The oral vehicle was added to increase the amount and the pH was confirmed to be not exceeding 11.0 (measured value: pH10.55-10.88).
A 0.04 mol/L boric acid/phosphoric acid/acetic acid mixed solution (307 mL) was mixed with a 0.2 mol/L aqueous sodium hydroxide solution (193 mL) (pH about 8.4), pH was adjusted to 8.5 with 1 mol/L hydrochloric acid to prepare Britton-Robinson buffer (pH 8.5). […] 4.5 mg of ATX inhibitor (Example 5) was measured in a 10 mL measuring flask, the instillation administration vehicle (9.6 mL) was added and the mixture was sonicated for 30 min in an ultrasonication washing machine set to about 40° C. […]

In the case of `COc1ccc(-c2cnnc(OC[C@H]3CC[C@H](C(F)(F)F)CC3)c2)nc1[C@H]1C[C@@H]1C(=O)O` [Example 5, (1S,2S)-2-[3-methoxy-6-(6-{[trans-4-(trifluoromethyl)cyclohexyl]methoxy}pyridazin-4-yl)pyridin-2-yl]cyclopropanecarboxylic Acid], in assay [1], the “Experimental Example 2 Rat single administration test (inhibitory activity (%) 8 hr after 1 mg/kg oral administration)” value amounted to 92%. Besides, the “intraocular pressure lowering action, single instillation administration” value in assay [2] (instillation, 0.0135 mg/eye, FIG. 8) is reported as “statistically significant intraocular pressure lowering action”. The “intraocular pressure lowering action, single oral administration” value in assay [2] (oral, 100 mg/kg, FIG. 7) is reported as “statistically significant intraocular pressure lowering action”.
